Measurements as given in patent US7297704B2, “Cycloalkyfused indole, benzothiophene, benzofuran and idene derivatives” (Wyeth, priority 2005, dated 2007).
Where a name gives a salt, the structure may show the parent alone.

Legend:
Human 5-HT1A Receptor [1] = target: T1, Human 5-HT1A Receptor (Homo sapiens, UniProt P08908); assay: 8-OH-DPAT binding, human 5-HT1A receptor cell line; details: stably transfected CHO cells, 8-OH-DPAT ligand 1.5 nM; read-out: h5-HT1A Affinity, Ki
T1 construct: expressed in transfected cells; host or cells: CHO cells
T1 sequence (P08908 1-422): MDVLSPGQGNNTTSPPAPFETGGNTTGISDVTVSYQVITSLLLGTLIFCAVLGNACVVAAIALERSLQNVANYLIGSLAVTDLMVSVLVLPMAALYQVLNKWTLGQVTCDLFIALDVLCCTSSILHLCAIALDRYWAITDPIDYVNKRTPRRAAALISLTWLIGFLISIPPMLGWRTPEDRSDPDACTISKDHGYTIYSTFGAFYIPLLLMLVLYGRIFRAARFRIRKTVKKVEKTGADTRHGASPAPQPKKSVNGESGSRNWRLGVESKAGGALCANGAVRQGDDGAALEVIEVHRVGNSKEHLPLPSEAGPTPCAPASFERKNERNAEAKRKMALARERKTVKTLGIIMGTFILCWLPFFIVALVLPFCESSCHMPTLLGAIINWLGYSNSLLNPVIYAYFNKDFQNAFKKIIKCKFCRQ
Experimental: Stably transfected CHO cells were grown in DMEM containing 10% heat inactivated FBS and non-essential amino acids. Cells were scraped off the plate, transferred to centrifuge tubes, and washed twice by centrifugation (2000 rpm for 10 min., 4° C.) in buffer (50 mM Tris, pH 7.5). The resulting pellets were aliquoted and placed at −80° C. On day of assay, the cells were thawed on ice, and resuspended in buffer. The binding assay was performed in a 96 well microtiter plate in a total volume of […]. Non-specific binding was determined in the presence of […] 5HT; final ligand concentration was 1.5 nM. Following a 30 min. incubation at room temperature, the reaction was terminated by the addition of ice cold buffer and rapid filtration through a GF/B filter presoaked for 30 min. in 0.5% PEI. Compounds were initially tested in a single point assay to determine percent inhibition at […]. Subsequently, Ki values were determined for compounds defined to be active. Percent inhibition Ki was determined by RFComp (Lundon Software), with Serotonin 8-OH-DPAT as the reference compounds.

Human 5-HT1A Receptor [2] = target: T1, Human 5-HT1A Receptor; assay: cAMP RIA in human 5-HT1A receptor cell line; type: cell-based; details: CHO cells; for IC50: superscript b, reversal of agonist activity, read-out: c-AMP, (IC50)^b
Experimental: Stably transfected CHO cells were grown in DMEM containing 10% heat inactivated FBS and non-essential amino acids. The cells were plated at a density of 10^6 cells per well in a 96 well plate and incubated for 2 days in a CO2 incubator. On the second day, the media was replaced with 0.1 ml Krebs and incubated 15 minutes at 37° C. The media was then replaced with Krebs buffer containing 500 uM IBMX and incubated 5 minutes at 37° C. Wells were treated with forskolin (1 uM final conc) followed immediately by test compound (0.1 and 1 uM for initial screen) and incubated for an additional 10 min at 37° C. Reaction was terminated by removal of the media and addition of 0.5 ml ice cold assay buffer (supplied in RIA kit). Plates are stored at −20° C. prior to assessment of cAMP formation by RIA. Compounds shown to have no agonist activities were further analyzed for ability to reverse agonist activity. In separate experiments, 6 concentrations of antagonist were preincubated for 20 min prior to the addition of agonist and forskolin. Cells were harvested as described. The cAMP kit is supplied by Amersham and the RIA is performed as per kit instructions. In the initial screen, percent inhibition of forskolin stimulated cAMP was measured. In the secondary screen, IC50 of reversal of agonist activity was measured. Calculations of IC50 were performed by GraphPad Prism. Serotonin, BMY 7378, Buspirone, and 8-OH-DPAT were used as reference compounds.

serotonin transporter = target: T2, serotonin transporter (Rattus norvegicus, UniProt P31652); assay: 3H-paroxetine binding to the serotonin transporter, rat frontal cortical membranes; details: values printed in parentheses, 3H-paroxetine 0.1 nM, read-out: rb-5-HH-T, (IC50)
T2 construct: frontal cortical membranes prepared from male S.D. rats; from tissue; host or cells: rat frontal cortex membranes (male Sprague-Dawley)
Experimental: A protocol similar to that used by Cheetham et al. (Neuropharmacol. 32:737, 1993) was used to determine the affinity of compounds for the serotonin transporter. Briefly, frontal cortical membranes prepared from male S.D. rats were incubated with ^3H-paroxetine (0.1 nM) for 60 min at 25° C. All tubes also contained either vehicle, test compound (one to eight concentrations), or a saturating concentration of fluoxetine (10 μM) to define […]. All reactions are terminated by the addition of ice cold Tris buffer followed by rapid filtration using a Tom Tech filtration device to separate bound from free ^3H-paroxetine. Bound radioactivity was quantitated using a Wallac 1205 Beta Plate® counter. Nonlinear regression analysis was used to determine IC50 values which were converted to Ki values using the method of Cheng and Prusoff (Biochem. Pharmacol. 22: 3099, 1973); […].

h-5-HT-T = h-5-HT-T (Homo sapiens, UniProt P31645); assay: h-5-HT-T IC50 (Table 1, no method described)
Chain of h-5-HT-T (P31645 whole entry): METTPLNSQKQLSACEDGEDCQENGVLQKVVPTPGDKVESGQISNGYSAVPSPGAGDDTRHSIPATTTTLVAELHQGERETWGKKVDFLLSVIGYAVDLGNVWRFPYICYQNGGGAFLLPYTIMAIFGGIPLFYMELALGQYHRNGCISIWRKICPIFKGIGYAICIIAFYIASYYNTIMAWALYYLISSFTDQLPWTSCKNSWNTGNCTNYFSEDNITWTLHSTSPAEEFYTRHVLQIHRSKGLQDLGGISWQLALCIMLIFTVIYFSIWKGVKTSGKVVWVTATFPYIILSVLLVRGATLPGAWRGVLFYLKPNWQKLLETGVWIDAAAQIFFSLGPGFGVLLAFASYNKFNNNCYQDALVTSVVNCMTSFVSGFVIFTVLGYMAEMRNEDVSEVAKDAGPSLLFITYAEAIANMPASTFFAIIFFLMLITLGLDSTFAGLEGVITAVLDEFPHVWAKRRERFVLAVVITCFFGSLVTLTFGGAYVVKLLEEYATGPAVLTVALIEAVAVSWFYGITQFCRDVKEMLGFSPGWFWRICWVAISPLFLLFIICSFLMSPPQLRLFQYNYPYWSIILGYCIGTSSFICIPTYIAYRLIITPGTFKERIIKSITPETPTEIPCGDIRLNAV

T2 sequence (P31652 whole entry): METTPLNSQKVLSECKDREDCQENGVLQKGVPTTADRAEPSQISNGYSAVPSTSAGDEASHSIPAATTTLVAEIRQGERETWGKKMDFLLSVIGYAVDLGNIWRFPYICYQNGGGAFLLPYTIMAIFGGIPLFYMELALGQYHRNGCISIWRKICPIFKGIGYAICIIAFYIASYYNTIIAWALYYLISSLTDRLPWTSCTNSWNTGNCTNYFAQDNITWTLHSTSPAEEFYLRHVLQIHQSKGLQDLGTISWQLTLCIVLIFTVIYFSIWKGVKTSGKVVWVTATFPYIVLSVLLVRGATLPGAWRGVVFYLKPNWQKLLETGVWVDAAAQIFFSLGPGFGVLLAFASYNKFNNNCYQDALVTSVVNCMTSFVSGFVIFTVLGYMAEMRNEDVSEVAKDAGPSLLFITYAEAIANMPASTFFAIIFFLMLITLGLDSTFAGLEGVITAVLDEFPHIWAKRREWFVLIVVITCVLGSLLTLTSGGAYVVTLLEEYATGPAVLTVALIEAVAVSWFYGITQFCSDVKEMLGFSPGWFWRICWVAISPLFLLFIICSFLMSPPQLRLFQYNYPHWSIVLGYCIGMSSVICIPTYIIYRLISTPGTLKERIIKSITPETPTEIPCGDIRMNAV

Row | SMILES | Ki (Human 5-HT1A Receptor [1]) [nM] | IC50 (Human 5-HT1A Receptor [2]) [nM] | melting point [°C] | IC50 (serotonin transporter) [nM] | IC50 (h-5-HT-T) [nM] | EC50 (Human 5-HT1A Receptor [2]; superscript a, forskolin stimulated cAMP, read-out: c-AMP, (EC50)^a) [nM] | Emax (Human 5-HT1A Receptor [2]; superscript c, forskolin stimulated cAMP, read-out: c-AMP, (Emax)^c) [%]
1 | Cc1ccc2c3c(ccc2n1)OC[C@H](CNCC1CCc2[nH]c4ccc(F)cc4c2C1)O3 (mixture of isomers) [Example 2, N-[(6-fluoro-2,3,4,9-tetrahydro-1H-carbazol-3-yl)methyl]-N-{[(2S)-8-methyl-2,3-dihydro[1,4]dioxino[2,3-f]quinolin-2-yl]methyl}amine] | 1.36 | 7.2 | 89 to 97 | 5.26 | – | – | –
2 | Cc1ccc2c3c(ccc2n1)OC[C@H](CNCC1CCc2c(c4cc(F)ccc4n2C)C1)O3 (mixture of isomers) [Example 6, N-[(6-fluoro-9-methyl-2,3,4,9-tetrahydro-1H-carbazol-3-yl)methyl]-N-{[(2S)-8-methyl-2,3-dihydro[1,4]dioxino[2,3-f]quinolin-2-yl]methyl}amine] | 3.65 | 532 | 57 to 62 | 9.01 | – | – | –
3 | Cc1ccc2c3c(ccc2n1)OC[C@H](CNCC1CCc2c([nH]c4ccc(F)cc24)C1)O3 (stereo partly drawn) [Example 1, N-[(6-fluoro-2,3,4,9-tetrahydro-1H-carbazol-2-yl)methyl]-N-{[(2S)-8-methyl-2,3-dihydro[1,4]dioxino[2,3-f]quinolin-2-yl]methyl}amine] | 2.23 | 15.2 | 92 to 96 | 49.4 | – | – | –
4 | Cc1ccc2c3c(ccc2n1)OC[C@H](CNC[C@@H]1CCc2[nH]c4c(F)cc(F)cc4c2C1)O3.Cl.Cl [Example 9, N-{[(3R)-6,8-difluoro-2,3,4,9-tetrahydro-1H-carbazol-3-yl]methyl}-N-{[(2S)-8-methyl-2,3-dihydro[1,4]dioxino[2,3-f]quinolin-2-yl]methyl}amine dihydrochloride] | 3.7 | 105 | 260 to 272 | 57.6 | – | – | –
5 | Cc1ccc2c3c(ccc2n1)OC[C@H](CNC[C@H]1CCc2[nH]c4c(F)cc(F)cc4c2C1)O3.Cl.Cl [Example 10, N-{[(3S)-6,8-difluoro-2,3,4,9-tetrahydro-1H-carbazol-3-yl]methyl}-N-{[(2S)-8-methyl-2,3-dihydro[1,4]dioxino[2,3-f]quinolin-2-yl]methyl}amine dihydrochloride] | 4.95 | 249 | 267 to 275 | 11.3 | – | – | –
6 | Cc1ccc2c3c(ccc2n1)OC[C@H](CNCC1CCc2[nH]c4cccc(F)c4c2C1)O3.Cl.Cl (stereo partly drawn) [Example 11, [(5-fluoro-2,3,4,9-tetrahydro-1H-carbazol-3-yl)methyl]{[(2S)-8-methyl-2,3-dihydro[1,4]dioxino[2,3-f]quinolin-2-yl]methyl}amine dihydrochloride] | 16.7 | 49.2 | 220 to 230 | 124 | – | – | –
7 | Cc1ccc2c3c(ccc2n1)OC[C@H](CNCC1CCc2c(c4c(F)cccc4n2C)C1)O3 (stereo partly drawn) [Example 12, N-[(5-fluoro-9-methyl-2,3,4,9-tetrahydro-1H-carbazol-3-yl)methyl]-N-{[(2S)-8-methyl-2,3-dihydro[1,4]dioxino[2,3-f]quinolin-2-yl]methyl}amine] | 0.54 | 26.7 | 84 to 90 | 180 | – | – | –
8 | Cc1ccc2c3c(ccc2n1)OC[C@H](CNCC1CCc2[nH]c4cc(F)ccc4c2C1)O3 (stereo partly drawn) [Example 13, N-[(7-fluoro-2,3,4,9-tetrahydro-1H-carbazol-3-yl)methyl]-N-{[(2S)-8-methyl-2,3-dihydro[1,4]dioxino[2,3-f]quinolin-2-yl]methyl}amine] | 1.8 | 22.1 | 89 to 97 | 120 | – | – | –
9 | Cc1ccc2c3c(ccc2n1)OC[C@H](CN(CC1CCc2c(c4cc(F)ccc4n2C)C1)C1CCCC1)O3 (stereo partly drawn) [Example 66, N-[(6-Fluoro-9-methyl-2,3,4,9-tetrahydro-1H-carbazol-3-yl)methyl]-N-{[(2S)-8-methyl-2,3-dihydro[1,4]dioxino[2,3-f]quinolin-2-yl]methyl}cyclopentanamine monohydrochloride monohydrate] | – | – | – | – | 62.3 ± 9.19 | 163 | 67.5

The next lines start with results.

Row | Ki (Human 5-HT1A Receptor [1]) [nM] | IC50 (Human 5-HT1A Receptor [2]) [nM] | melting point [°C] | IC50 (serotonin transporter) [nM] | IC50 (h-5-HT-T) [nM] | SMILES | EC50 (Human 5-HT1A Receptor [2]; superscript a, forskolin stimulated cAMP, read-out: c-AMP, (EC50)^a) [nM] | Emax (Human 5-HT1A Receptor [2]; superscript c, forskolin stimulated cAMP, read-out: c-AMP, (Emax)^c) [%]
10 | 13.6 | 79.5 | 236 to 241 | 3.61 | – | Cc1ccc2c3c(ccc2n1)OC[C@H](CNC[C@H]1CCc2[nH]c4ccc(C#N)cc4c2C1)O3.Cl.Cl [Example 14, (3S)-3-[({[(2S)-8-methyl-2,3-dihydro[1,4]dioxino[2,3-f]quinolin-2-yl]methyl}amino)methyl]-2,3,4,9-tetrahydro-1H-carbazole-6-carbonitrile dihydrochloride] | – | –
11 | 15 | 888 | 254 to 258 | 2.25 | – | Cc1ccc2c3c(ccc2n1)OC[C@H](CNC[C@@H]1CCc2[nH]c4ccc(C#N)cc4c2C1)O3.Cl.Cl [Example 15, (3R)-3-[({[(2S)-8-methyl-2,3-dihydro[1,4]dioxino[2,3-f]quinolin-2-yl]methyl}amino)methyl]-2,3,4,9-tetrahydro-1H-carbazole-6-carbonitrile dihydrochloride] | – | –
12 | – | – | – | – | 1700 ± 46 | Cc1ccc2c3c(ccc2n1)OC[C@H](CN(C[C@H]1CCc2[nH]c4ccc(F)cc4c2C1)C(C)C)O3 [Example 61, N-{[(3S)-6-Fluoro-2,3,4,9-tetrahydro-1H-carbazol-3-yl]methyl}-N-{[(2S)-8-methyl-2,3-dihydro[1,4]dioxino[2,3-f]quinolin-2-yl]methyl}propan-2-amine monohydrochloride monohydrate] | – | –
13 | – | – | – | – | 403 ± 29 | Cc1ccc2c3c(ccc2n1)OCC(CN(CC1CCc2c(c4cc(F)ccc4n2C)C1)C(C)C)O3 [Example 65, N-[(6-Fluoro-9-methyl-2,3,4,9-tetrahydro-1H-carbazol-3-yl)methyl]-N-([(2S)-8-methyl-2,3-dihydro[1,4]dioxino[2,3-f]quinolin-2-yl]methylpropan-2-aminemonohydrochloride monohydrate] | – | –
14 | – | – | – | – | 505 ± 9.55 | Cc1ccc2c3c(ccc2n1)OC[C@H](CN(CC1CCc2c(c4cc(F)ccc4n2C)C1)C1CCCCC1)O3 (stereo partly drawn) [Example 67, N-[(6-Fluoro-9-methyl-2,3,4,9-tetrahydro-1H-carbazol-3-yl)methyl]-N-{[(2S)-8-methyl-2,3-dihydro[1,4]dioxino[2,3-f]quinolin-2-yl]methyl}cyclohexanamine monohydrochloride monohydrate] | – | –
